According to US20130244999A1, “Substituted Heterocyclic Compounds” (Incyte Corporation, priority 2008, published 2013):

Target: T1, histamine H4 receptor (Homo sapiens, UniProt Q9H3N8)
T1 construct: expressed in transfected cells; host or cells: HEK293SFM cells (membrane preparation)
Test: Inhibition of histamine H4 receptor (Table A1; H4 membrane binding assay)
Settings: for IC50: histamine H4 receptor, "> a" = exceeds experiment limit
In short: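 Radioligand binding was measured by filtration through PEI-treated GF/B filters with scintillation counting, using 1000× unlabeled ligand to define nonspecific binding. Membranes were prepared from HEK293SFM cells recombinantly expressing human H4 in ice-cold 50 mM Tris-HCl, pH 7.5, plus protease inhibitors.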

T1 sequence (Q9H3N8 whole entry): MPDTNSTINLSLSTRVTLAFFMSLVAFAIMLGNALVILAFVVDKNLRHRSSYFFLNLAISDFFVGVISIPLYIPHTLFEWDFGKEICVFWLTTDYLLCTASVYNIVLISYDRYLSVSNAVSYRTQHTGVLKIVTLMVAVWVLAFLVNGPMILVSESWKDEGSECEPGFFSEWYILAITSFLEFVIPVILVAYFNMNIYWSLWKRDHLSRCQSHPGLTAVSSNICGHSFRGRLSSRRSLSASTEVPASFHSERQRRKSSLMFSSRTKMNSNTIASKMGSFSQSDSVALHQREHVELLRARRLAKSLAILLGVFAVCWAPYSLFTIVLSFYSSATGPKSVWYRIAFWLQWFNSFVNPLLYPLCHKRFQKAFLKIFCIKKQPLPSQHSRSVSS

SMILES | IC50 | inhibition at 1 µM
CNC(=O)c1ccc(N2CCN(c3ccc4c(c3)CN(c3cc(N5CCN(C)CC5)nc(N)n3)CC4)C(=O)C2)nc1 [Example 44, 6-(4-{2-[2-Amino-6-(4-methylpiperazin-1-yl)pyrimidin-4-yl]-1,2,3,4-tetrahydroisoquinolin-7-yl}-3-oxopiperazin-1-yl)-N-methylnicotinamide] | 93 nM | –
CNC(=O)c1ncc(-c2ccc3c(c2)CN(c2cc(N4CCN(C)CC4)nc(N)n2)CC3)cc1C [Example 45, 5-{2-[2-Amino-6-(4-methylpiperazin-1-yl)pyrimidin-4-yl]-1,2,3,4-tetrahydroisoquinolin-7-yl}-N,3-dimethylpyridine-2-carboxamide] | 106 nM | –
CC(=O)Nc1ccc(-c2ccc3c(c2)CN(c2cc(N4CCN(C)CC4)nc(N)n2)CC3)cn1 [Example 3, N-(5-{2-[2-Amino-6-(4-methylpiperazin-1-yl)pyrimidin-4-yl]-1,2,3,4-tetrahydroisoquinolin-7-yl}pyridin-2-yl)acetamide] | 31 nM | –
CC1Cc2ccc(-c3cc(C(=O)NC4CC4)n(C)c3)cc2CN1c1cc(N2CCN(C)CC2)nc(N)n1 (single isomer, unassigned) [Example 91B, 4-{2-[2-Amino-6-(4-methylpiperazin-1-yl)pyrimidin-4-yl]-3-methyl-1,2,3,4-tetrahydroisoquinolin-7-yl}-N-cyclopropyl-1-methyl-1H-pyrrole-2-carboxamide] | – | 76%
